Data on six molecules can be found in patent US20230310627A1, “COMBINATION THERAPY WITH ANTI-TROP-2 ANTIBODIES AND PARP INHIBITORS” (priority 2021, published 2023).

In series [1] the test system is TNBC xenografts. Conditions: nude mice bearing TNBC xenografts; independent of BRCA1/2 mutation status; cited from earlier work.
Series [2] has as its system colorectal cancer. As to conditions: continuous olaparib administration; cited from earlier work.
Series [3] has as its system patients with mTNBC. The series is described as follows: Phase 1b/2 open-label study of SG in combination with talazoparib (NCT04039230). Type of series: in vivo, human. Conditions: every 21 days. The method, then: Study Design: In a Phase 1b/2, open-label study, SG was administered in combination with talazoparib for patients with mTNBC (clinicaltrials.gov#NCT04039230; FIG. 2A). Treatment cycles were continued until unacceptable toxicity or progression of disease at the discretion of the treating physician. Within 4 weeks prior to the first dose of study treatment administration, baseline evaluations were completed which included patient medical and surgical history, a physical examination with vital signs and performance evaluation, laboratories, and tumor assessment imaging. Once on active treatment, patients were administered SG and talazoparib over a 21 day cycle or 28 day cycle. […] All patients were monitored closely over the course of their treatment and NCI CTC v5.0 was used to grade all adverse events and provide dose reduction, delay, or cessation guidelines in the event of treatment-related toxicity. […]
Study Population: Patients enrolled were 18 years of age or older with histological or cytological confirmation of TNBC as determined by the local institution, with metastatic disease documented by CT or MRI imaging, and currently have measurable disease by CT/MRI. […]
Endpoints: Safety and tolerability of SG in combination with talazoparib was evaluated from adverse events, standard safety laboratories, physical examination, vital signs, and EKG. […]

For series [4] the following is noted: veliparib in combination with topotecan; cited from earlier work.
Series [5] has as its system normal diploid cells (WI-38). Put plainly: In vitro cytotoxicity of sequential SG then talazoparib in normal diploid cells. Type of series: cell-based. The method, then: Cell Lines and Cell Culture: All cell lines were obtained from the MGH Center for Molecular Therapeutics cell bank in and underwent high-density SNP typing to confirm their identity. All experiments shown were performed within less than 6 months' passage of all lines since acquisition. Cells were maintained at 37° C. in 5% CO2. MDA-MB-468 cells were grown in RPMI (Lonza) supplemented with 10% FBS (SAFC), 1% penicillin (Gibco), streptomycin (Gibco). WI-38 cells were grown in DMEM (Lonza) supplemented with 10% FBS (SAFC), 1% penicillin (Gibco), streptomycin (Gibco).
TROP2-expressing TNBC cells or normal diploid cells were exposed to SG, followed by washout, then PARPi treatment with Talazoparib.

The target of series [6] is T1, TOP1 cleavage complexes (TOP1CC) (Homo sapiens, UniProt P11387).
T1 construct: endogenous in cells; host or cells: MDA-MB-468 breast cancer cells (immunofluorescence); TNBC cell models (RADAR)
T1 sequence (P11387 1-765): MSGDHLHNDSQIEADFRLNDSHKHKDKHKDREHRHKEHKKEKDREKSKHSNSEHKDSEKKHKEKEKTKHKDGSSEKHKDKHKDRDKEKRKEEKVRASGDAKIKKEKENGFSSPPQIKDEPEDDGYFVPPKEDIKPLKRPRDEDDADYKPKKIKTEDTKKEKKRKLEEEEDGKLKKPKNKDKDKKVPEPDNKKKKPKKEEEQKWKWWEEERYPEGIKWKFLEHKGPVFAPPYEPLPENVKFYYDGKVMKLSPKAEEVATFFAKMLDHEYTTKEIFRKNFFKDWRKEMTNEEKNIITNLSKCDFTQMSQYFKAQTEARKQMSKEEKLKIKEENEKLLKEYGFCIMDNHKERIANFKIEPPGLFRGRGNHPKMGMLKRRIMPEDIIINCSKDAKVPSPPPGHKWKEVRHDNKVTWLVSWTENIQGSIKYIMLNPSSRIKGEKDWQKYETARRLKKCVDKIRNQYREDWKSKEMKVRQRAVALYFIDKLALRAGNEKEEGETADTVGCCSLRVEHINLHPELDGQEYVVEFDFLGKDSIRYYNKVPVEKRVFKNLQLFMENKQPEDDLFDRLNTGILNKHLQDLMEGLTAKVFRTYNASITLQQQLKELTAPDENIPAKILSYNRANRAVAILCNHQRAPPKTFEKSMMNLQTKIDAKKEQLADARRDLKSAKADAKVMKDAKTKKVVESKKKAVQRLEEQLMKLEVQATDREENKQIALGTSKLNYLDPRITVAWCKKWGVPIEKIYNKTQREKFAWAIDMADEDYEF
The series is described as follows: TOP1CC detection by RADAR assay and immunofluorescence. Format: cell-based. The method, then: Modification of the RADAR assay for detection of TOP1CC: Detection of TOP1CC was performed according to the published protocol (PMID: 34408146) with minor modification. After SG and/or TZP treatment, 1×10^6 cells per condition were washed with 1×PBS and lysed with 600 μl DNAzol (Invitrogen) at 4° C. for 10 min, followed by precipitation with 300 μl 100% ethanol. The nucleic acids were collected by centrifugation at 15,000 rpm for 10 min at 4° C., washed with 75% ethanol twice and resuspended in 200 μl TE buffer. The samples were then heated at 65° C. for 15 min, followed by shearing with sonication (40% output for 10 s pulse and 10 s rest for four times). […] The concentration of the sample was quantified by NanoDrop. […]
Immunofluorescence: To visualize TOP1CC by immunofluorescence, cells were plated into 96-well plates having #1.5 glass coverslips (Cellvis, P98-1.5H-N). […] Images were compiled and quantified using ImageJ software.
Without wishing to be bound by any theory, sequential PARPi is believed to enhance SG toxicity through stabilization of TOP1CC that persist following SG washout due to the high delivered SN38 concentration in tumor cells (FIG. 3A). TOP1CC was quantified by two methods: the RADAR (Rapid Approach to DNA Adduct Recovery) assay, which detects TOP1 covalently bound to DNA, and by immunofluorescence. […]

Series [7] deals with phosphorylated histone H2AX (γH2AX). Put plainly: Flow cytometry of phosphorylated histone H2AX (γH2AX). Format: cell-based. As for the experimental part:
Flow Cytometry: For flow cytometry detection of γH2AX (also known as g-H2AX), 1×10^6 cells were collected and fixed with 4% paraformaldehyde at 4° C. for 20 min and then permeabilized with 0.25% Triton X-100 in PBS. After blocking with 2% BSA in PBS at 4° C. for 20 min, the cells were stained with Alexa Fluor® 488 conjugated anti-phospho Histone H2A.X antibody (EMD Millipore, clone JBW301, #05-636-AF488) at 4° C. for 1 h. The cells were then washed twice with 2% BSA in PBS and counterstained with DAPI (Abcam, #ab228549). For flow cytometry detection of apoptotic cells, 1×10^6 cells were collected, and the staining was performed by using eBioscience™ Annexin V Apoptosis Detection Kit APC (Invitrogen, #88-8007) according to manufacturer's instruction. Samples were examined using a FACSAria flow cytometer. […]
Without wishing to be bound by any theory, sequential PARPi is believed to enhance SG toxicity through stabilization of TOP1CC that persist following SG washout due to the high delivered SN38 concentration in tumor cells (FIG. 3A). TOP1CC was quantified by two methods: the RADAR (Rapid Approach to DNA Adduct Recovery) assay, which detects TOP1 covalently bound to DNA, and by immunofluorescence. […] Persistent TOP1CC are expected to lead to DNA damage including double-strand DNA breaks, which were quantified using flow cytometry to assess phosphorylated histone H2AX (γH2AX) staining. […]
A general note: Flow cytometry measures light scatter and fluorescence of single cells or particles in a stream.

The subject of series [8] is patients with previously treated mTNBC. Conditions: phase III ASCENT; cited from earlier work.

For the molecule `O=C(c1cc(Cc2n[nH]c(=O)c3ccccc23)ccc1F)N1CCN(C(=O)C2CC2)CC1` [olaparib], the “tumor growth inhibition in combination with sacituzumab govitecan” value (from here on “tumor growth inhibition in combination”) in series [1] is “Synthetic lethality and synergistic inhibition of tumor growth”. Besides, the “toxicity of the combination with irinotecan” value in series [2] is “higher-than-expected toxicities and considered intolerable”.

Regarding `CNCc1ccc(-c2[nH]c3cc(F)cc4c3c2CCNC4=O)cc1` [rucaparib], the “tumor growth inhibition in combination” value in series [1] is “Synthetic lethality and synergistic inhibition of tumor growth”.

Turning to `Cn1ncnc1[C@H]1c2n[nH]c(=O)c3cc(F)cc(c23)N[C@@H]1c1ccc(F)cc1` [talazoparib], the “recommended phase-2 dose (R2PD)” value in series [3] (talazoparib on days 15-21 after SG) is on record as 1 mg. In addition, in series [1], the “tumor growth inhibition in combination” value is “Synthetic lethality and synergistic inhibition of tumor growth”.

With `CC[C@@]1(O)C(=O)OCc2c1cc1n(c2=O)Cc2cc3c(CN(C)C)c(O)ccc3nc2-1` [topotecan], the “MTD in the combination relative to single-agent MTD” value in series [4] is 40%.

Take `C[C@]1(c2nc3c(C(N)=O)cccc3[nH]2)CCCN1` [veliparib]: the “MTD in the combination relative to single-agent MTD” value in series [4] is 3%.

Consider sacituzumab govitecan [SG], for which the “recommended phase-2 dose (R2PD)” value in series [3] (sequential SG on days 1,8 with talazoparib) is reported as 10 mg/kg. In addition, the “SG sensitivity (cytotoxicity)” value in series [5] is “little SG sensitivity”. Also, the “TOP1CC following SG washout” value in series [6] is “resolved entirely within two hours”. Besides, the “DNA damage (γH2AX staining) after SG washout” value in series [7] is “resolution of DNA damage within 24 hours”. In series [8], the median overall survival was 12.1 months and the median progression-free survival is 5.6 months.
